From patent US20060122152A1, “Heparin for the treatment of ocular pathologies” (priority 2004, published 2006)

Key:
[1] = tested on: corneal neovascularization; experiment: Silver nitrate cauterization, single agents, percent area of neovascularization and scar (Example 4); format: in vivo, Long Evans pigmented rats; conditions: for NV area compared to the control group, statistical significance (in words): GLM with Tukey's studentized range test, p≦0.05; for Percent Area Of Neovascularization Mean +/− SD: day 7, topical two times daily for 7 days, LMWH 10 mg/ml, ascomycin 50 μg/ml, flurbiprofen 0.03%, doxycycline 20 mg/ml, triamcinolone acetonide 4 mg/ml, normal saline 74.9 +/− 9.2; for mean of percent area (neovascularization): day 7, same treatments, control group 74.9%±9.2%, FIG. 6; for neovascularization on slit lamp photograph (in words): seven days after induction of corneal burn, FIGS. 8A-8C
[2] = tested on: corneal neovascularization; experiment: Silver nitrate cauterization, two drug combinations, percentage area of corneal neovascularization (Example 3); format: in vivo, Long Evans rats; conditions: for effect on corneal neovascularization as individual agents (in words): flurbiprofen 0.03% w/v, LMWH 10 mg/ml, data not shown
Description: Artificial corneal burns were induced in thirty-two eyes belonging to thirty-two Long Evans rats to determine the effects of doxycycline or another tetracycline derivative and low molecular weight heparin, doxycycline or another tetracycline derivative, and flurbiprofen, or flurbiprofen and low molecular weight heparin, on corneal neovascularization. All the eyes were examined to exclude any eyes with corneal scars and/or neovascularization prior to induction.
Neovascularization was induced in all eyes using silver nitrate cauterization. The animals were first anesthetized by intraperitoneal injection of a mixture of ketamine hydrochloride (25 mg/kg) with xylazine hydrochloride (5 mg/kg). The cornea was then anesthetized by a drop of 0.5% proparacaine and allowed to dry.
Group 1 (number of animals, n=8) received a 1:1 combination of 0.03% flurbiprofen sodium ophthalmic solution (Allergan, Irvine Calif.) and 10 mg/ml low molecular weight heparin (Enoxaparin, Aventis Pharmaceuticals Inc., Bridgewater N.J.); an actual concentration of 0.015% flurbiprofen with 5 mg/ml low molecular weight heparin. […] Group 3 (n=8) received a 1:1 combination of 20 mg/ml doxycycline and 10 mg/ml low molecular weight heparin; an actual concentration of 10 mg/ml doxycycline with 5 mg/ml low molecular weight heparin. Group 4 (n=8) received balanced salt solution (control). The drops were applied topically immediately after cauterization; treatments were administered two times per day for seven days.
The presence of new vessels (neovascularization) and the extent of new vessel formation was assessed by slit lamp photography and histology. Inhibition of vessel proliferation was evaluated by measuring vessel progression from the outer cornea (corneal limbus) into the cornea. As previously described, it will be appreciated that any reduction of new vessel proliferation and/or regression of existing vessels is therapeutic, and that complete inhibition and/or regression is not required, and also that reduction includes regression of existing vessels.
The extent of corneal neovascularization was determined by slit lamp microscopy with photography (SL-7E, Topcon, Tokyo Japan) on day seven after cauterization. The animals were euthanized in a carbon dioxide chamber under deep general anesthesia. […]
Corneal neovascularization was assessed by scanning (Cano scan 9900F, Canon, Tokyo Japan) the slit lamp photographs into high resolution digital images. […] The percentage area of the cornea covered by the corneal scar in each eye was also determined. […]
Statistical analysis was performed using Statistical Analysis System (SPSS 11.5) software. The difference between the groups was determined using Mann-Whitney U Analysis test; a p value less than 0.05 was considered significant.

[3] = tested on: corneal neovascularization; experiment: Silver nitrate corneal burn in rat eyes: graded inhibition of neovascularization (Example 1); format: in vivo; conditions: single agents topically applied twice a day; doxycycline about 1 to about 20 mg/ml, LMWH about 10 mg/ml, triamcinolone about 4 mg/ml; compared to controls
Method: Artificial corneal burns were induced in rat eyes to determine the effects of doxycycline, steroids, and low molecular weight heparin, alone and in combinations, on corneal neovascularization.
The presence of new vessels (neovascularization) and the extent of new vessel formation was assessed by split lamp photography and histology. Inhibition of vessel proliferation was evaluated by measuring vessel progression from the outer cornea (corneal limbus) into the cornea. A numerical rating system was used to quantitate the degree of inhibition (+, ++, and +++ inhibition), with “+ inhibition” indicating inhibition one-third of the distance from the limbus of the cornea to the center; “++ inhibition” indicating inhibition two-thirds of the distance from the limbus to the center; “+++ inhibition” indicating complete inhibition of vessels between the limbus and the center; and the designation “± inhibition” indicating an intermediate degree of inhibition (e.g, less than +, ++, or +++).

Row | Molecule | NV area compared to the control group, statistical significance (in words) [1] | Percent Area Of Neovascularization Mean +/− SD [1] | mean of percent area (neovascularization) [1] | effect on corneal neovascularization as individual agents (in words) [2] | inhibition of neovascularization [3] | neovascularization on slit lamp photograph (in words) [1] | effect on corneal neovascularization as individual agent (in words) ([2]; doxycycline at 10 mg/ml) | effect on corneal neovascularization as individual agent (in words) ([2]; doxycycline at 20 mg/ml, p<0.05%) | histopathology of corneal stroma (in words) ([1]; H&E 100X, FIG. 9B)
1 | low molecular weight heparin | no statistically significant differences | 66.7 +/− 9.9% | 66.7%±9.9% | did not significantly decrease | + | – | – | – | –
2 | CC1c2cccc(O)c2C(=O)C2=C(O)C3(O)C(=O)C(C(N)=O)=C(O)C(N(C)C)C3C(O)C21.O (stereo not shown) [doxycycline, 4-(dimethylamino)-1,4,4a,5,5a,6,11,12a-octahydro3,5,10,12,12a-pentahydroxy-6-methyl-1,11-dioxo-2-naphthacenecarboxamide monohydrate] | significant reduction | 35.5 +/− 29.1% | 35.5%±29.1% | – | + | neovascularization is less prominent than in control group | not | did significantly inhibit | –
3 | CC1(C)O[C@@H]2C[C@H]3[C@@H]4CCC5=CC(=O)C=C[C@]5(C)[C@@]4(F)[C@@H](O)C[C@]3(C)[C@]2(C(=O)CO)O1 [triamcinolone, 9α-fluoro-11 13,16a,17,21 tetra hydroxy-pregna-1,4diene-3,20-dione cyclic 16,17-acetal with acetone] | significant reduction | 13.3 +/− 7.2% | 13.3%±7.1% | – | ++ | relatively small neovascular area | – | – | avascular stroma
4 | CC(C(=O)[O-])c1ccc(-c2ccccc2)c(F)c1.O.O.[Na+] (racemic) [flurbiprofen, sodium (±)-2-(2-fluoro-4-biphenylyl)-propionate dihydrate] | no statistically significant differences | 50.6 +/− 18.7% | 50.5%±18.7% | did not significantly decrease | – | neovascularization is quite prominent | – | – | –
5 | CC[C@@H]1/C=C(\C)C[C@H](C)C[C@H](OC)[C@H]2O[C@@](O)(C(=O)C(=O)N3CCCC[C@H]3C(=O)O[C@H](/C(C)=C/[C@@H]3CC[C@@H](O)[C@H](OC)C3)[C@H](C)[C@@H](O)CC1=O)[C@H](C)C[C@@H]2OC [ascomycin] | no statistically significant differences | – | 56.0%±22.4% | – | – | – | – | – | –
